Measurements published in patent US4743619A, “Method of treating hepatitis” (American Home Products Corporation, priority 1986, dated 1988).

Target: T1, polymerase of hepatitis B virus (Hepatitis B virus genotype D subtype ayw, UniProt P03156)
T1 construct: the Dane particles were isolated from HBV-infected human blood; from tissue; host or cells: Dane particles (HBV virions) isolated from HBV-infected human blood
Assay: in vitro endogenous DNA polymerase assay (Dane particles, radioactive nucleotide incorporation into viral DNA)
Type: biochemical
Conditions: for inhibition at 0.01 µg/mL: 0.01 μg/ml; for inhibition at 0.01 µg/mL / inhibition at 0.1 µg/mL: 37° C., 2 hours, Dane particle DNA polymerase; for inhibition at 0.1 µg/mL: 0.1 μg/ml; for inhibition of the polymerase of hepatitis B virus (in words): according to the endogenous DNA polymerase procedure
Procedure: Ten microliters of Dane particles were incubated at 37° C. for 2 hours in 100 μl containing 0.5% NP40, 0.07% BME, 66 mM Tris HCl (pH 7.6) 27 mM MgCl2, 0.40 mM NH4 Cl, 0.3 mM dATP, dGTP, and dTTP and 4 picomoles α^32 P-dCTP. The appropriate tubes also contained either 0.1 μg/ml or 0.01 μg/ml of the rifamycin derivatives (a), (b), (c), (d), or (e). The quantity of incorporation of radioactive nucleotides into viral DNA was determined by trichloroacetic acid precipitation as described by Landers et al., J. Virol. 23: 368-376, 1977. The control DNA polymerase reaction contained more than 20,000 cpm.

T1 sequence (P03156 whole entry): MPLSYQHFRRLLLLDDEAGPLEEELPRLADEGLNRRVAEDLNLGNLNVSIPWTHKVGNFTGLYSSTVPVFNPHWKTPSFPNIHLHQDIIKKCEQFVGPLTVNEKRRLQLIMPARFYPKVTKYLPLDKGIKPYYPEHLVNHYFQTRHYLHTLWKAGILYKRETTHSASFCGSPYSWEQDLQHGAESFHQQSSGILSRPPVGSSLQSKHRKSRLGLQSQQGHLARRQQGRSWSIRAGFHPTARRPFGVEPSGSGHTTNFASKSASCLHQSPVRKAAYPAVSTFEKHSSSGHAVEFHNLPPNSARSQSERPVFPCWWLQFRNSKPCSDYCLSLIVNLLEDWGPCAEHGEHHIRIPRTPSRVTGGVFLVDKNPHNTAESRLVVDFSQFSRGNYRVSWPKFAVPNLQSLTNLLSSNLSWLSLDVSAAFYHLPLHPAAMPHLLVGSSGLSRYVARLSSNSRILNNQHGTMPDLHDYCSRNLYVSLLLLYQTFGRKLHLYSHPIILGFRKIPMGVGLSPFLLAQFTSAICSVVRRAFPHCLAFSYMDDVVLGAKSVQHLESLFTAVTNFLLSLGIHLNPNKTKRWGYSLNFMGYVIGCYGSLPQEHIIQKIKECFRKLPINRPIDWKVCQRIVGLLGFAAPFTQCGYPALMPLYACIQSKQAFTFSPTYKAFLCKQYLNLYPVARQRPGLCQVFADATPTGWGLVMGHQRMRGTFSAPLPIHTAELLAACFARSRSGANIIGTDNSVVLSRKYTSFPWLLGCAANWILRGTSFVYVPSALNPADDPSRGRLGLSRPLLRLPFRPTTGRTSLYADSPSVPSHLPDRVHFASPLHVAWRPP

Row | Compound | inhibition at 0.01 µg/mL [%] | inhibition at 0.1 µg/mL [%] | inhibition of the polymerase of hepatitis B virus (in words)
1 | CO[C@H]1/C=C/O[C@@]2(C)Oc3c(C)c(O)c4c(c3C2=O)C(=N)C(N)=C(NC(=O)/C(C)=C\C=C\[C@H](C)[C@H](O)[C@@H](C)[C@@H](O)[C@@H](C)[C@H](OC(C)=O)[C@@H]1C)C4=O [(a), 3-amino-4-deoxo-4-imino-rifamycin S] | 17.2 | 54.1 | –
2 | COC1C=COC2(C)Oc3c(C)c(O)c4c(O)c(c5c(c4c3C2=O)N(S(C)(=O)=O)C(C)N5)NC(=O)C(C)=CC=CC(C)C(O)C(C)C(O)C(C)C(OC(C)=O)C1C (centres unmarked) [(f), 4-deoxo-N,3-ethylidenimino-4-(methylsulfonyl)amino rifamycin SV] | 23.8 | 84.6 | inhibit the polymerase of hepatitis B virus
3 | CCCCS(=O)(=O)Oc1c(C=NN2CCOCC2)c2c(O)c3c(O)c(C)c4c(c13)C(=O)[C@@](C)(O/C=C/[C@H](OC)[C@@H](C)[C@@H](OC(C)=O)[C@H](C)[C@H](O)[C@H](C)[C@@H](O)[C@@H](C)/C=C/C=C(/C)C(=O)N2)O4 [(d), 4-O-(n-butylsulfonyl)-3-[(4-morpholinylimino)methyl]-rifamycin SV] | 10.2 | 92.5 | inhibit the polymerase of hepatitis B virus
4 | CO[C@H]1/C=C/O[C@@]2(C)Oc3c(C)c(O)c4c(O)c(c(N)c(NS(=O)(=O)c5ccc(N)cc5)c4c3C2=O)NC(=O)/C(C)=C\C=C\[C@H](C)[C@H](O)[C@@H](C)[C@@H](O)[C@@H](C)[C@H](OC(C)=O)[C@@H]1C [(b), 3-amino-4-deoxo-4-[(4-aminophenyl)sulfonyl]amino-rifamycin SV] | 10 | 89 | inhibit the polymerase of hepatitis B virus
5 | CO[C@H]1/C=C/O[C@@]2(C)Oc3c(C)c(O)c4c(O)c(c(C=NN(C)C)c(OS(=O)(=O)CCCc5ccccc5)c4c3C2=O)NC(=O)/C(C)=C\C=C\[C@H](C)[C@H](O)[C@@H](C)[C@@H](O)[C@@H](C)[C@H](OC(C)=O)[C@@H]1C [(e), 3-[(dimethylhydrazono)methyl]-4-O-[(3-phenylpropyl)sulfonyl]-rifamycin SV] | 25.1 | 85.6 | inhibit the polymerase of hepatitis B virus
6 | CCCCS(=O)(=O)Oc1c(C=NN2CCCCC2)c2c(O)c3c(O)c(C)c4c(c13)C(=O)[C@@](C)(O/C=C/[C@H](OC)[C@@H](C)[C@@H](OC(C)=O)[C@H](C)[C@H](O)[C@H](C)[C@@H](O)[C@@H](C)/C=C/C=C(/C)C(=O)N2)O4 [(c), 4-O-(n-butylsulfonyl)-3-[(1-piperidinylimino)methyl]-rifamycin SV] | 8.3 | 55.7 | inhibit the polymerase of hepatitis B virus
